Test results taken from PMC10906037, “Highly Enantioselective Catalysis by Enzyme Encapsulated in Metal Azolate Frameworks with Micelle-Controlled Pore Sizes” (ACS Central Science, 2024).

Target: T1, lipase CAL-B (Moesziomyces antarcticus, UniProt P41365)
T1 sequence (P41365 26-342): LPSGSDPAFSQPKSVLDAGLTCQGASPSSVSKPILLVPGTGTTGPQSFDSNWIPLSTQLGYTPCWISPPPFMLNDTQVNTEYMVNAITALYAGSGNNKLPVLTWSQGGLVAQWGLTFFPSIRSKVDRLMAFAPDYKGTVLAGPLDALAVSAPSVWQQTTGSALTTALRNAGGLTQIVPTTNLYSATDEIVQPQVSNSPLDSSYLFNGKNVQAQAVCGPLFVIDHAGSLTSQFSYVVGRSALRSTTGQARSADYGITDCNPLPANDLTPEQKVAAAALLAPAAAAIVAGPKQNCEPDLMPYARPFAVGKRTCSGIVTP
Assay: kinetic resolution, yield
Type: biochemical
Conditions: free CAL-B; substrate not given

Question: For `CC(=O)O[C@H](C)c1cccc2ccccc12` [compound 8, product 8], which “kinetic resolution, yield” value is on record?
Answer: Its value is “it resulted in a notably lower yield in comparison to free CAL-B”.
